This note sets out measurements from the METLIN SMRT retention time set (Domingo-Almenara et al. 2019).

This data set is described as follows: gradient 5% acetonitrile 3 min, to 50% in 2 min, to 85% in 15 min, held 3 min, 100 µL/min. Particulars: column: Zorbax Extend-C18 2.1 x 50 mm; eluents: water / acetonitrile, 0.1% formic acid. An outline of the steps: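 In both positive and negative ionization mode, a quadrupole time-of-flight mass spectrometer coupled to HPLC analyzed pure standards run in mixtures of ~100 molecules. The Zorbax Extend-C18 column (2.1 × 50 mm, 1.8 μm) was operated at 100 μL/min with water and acetonitrile, each containing 0.1% formic acid. The dead volume was 40 μL and the dwell volume 900 μL. Retention time came from adduct peaks that were computationally picked and individually inspected by hand.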
`COc1ccc(C(C)NC(=O)c2cn3cc(C)ccc3n2)cc1` (centres undefined) showed an RP-LC retention time of 671 s.

Regarding `Cc1oc(-c2[nH]ncc2C(=O)N2CCCC2)cc1S(=O)(=O)NCc1ccc(F)cc1`, the RP-LC retention time came to 709 s.

`CC(C)n1c(CN2CCOCC2)nc2cc(NC(=O)c3ccco3)ccc21` had an RP-LC retention time of 619 s.

`CCc1cc(=O)n(CC(=O)Nc2ccc(F)c(Cl)c2)c(N2CCOCC2)n1` yielded an RP-LC retention time of 828 s.

Turning to `COc1ccccc1-c1nc(Cn2nnc(-c3nc(-c4ccccc4Cl)no3)c2C)c(C)o1`, the RP-LC retention time came to 1120 s.

In the case of `CCC(CC)C(=O)Nc1nc(-c2ccc3c(c2)NC(=O)C(C)O3)c(C)s1` (centres undefined), the RP-LC retention time worked out at 922 s.

On to `CCOC(=O)C1CCN(C(=O)C2c3ccccc3C(=O)N(C)C2c2cccs2)CC1` (centres undefined), for which the RP-LC retention time came to 810 s.

The compound `CCCC(=O)N1CCc2c([nH]c3ccccc23)C1c1cccc(OCC)c1` (centres undefined) yielded an RP-LC retention time of 1150 s.

Turning to `CCOc1ccc(C(=O)N2CCc3cc(-c4csc(C)n4)ccc32)cc1`, the RP-LC retention time was 1060 s.

For the compound `CCOc1ccccc1-c1nc(-c2cn(Cc3cccc(F)c3)nn2)no1`, the RP-LC retention time was found to be 1010 s.

`CC(C)CN(Cc1cccnc1)C1CN(C(=O)NCc2ccccc2)C1`: the RP-LC retention time turned out to be 627 s.

`COc1cc2c(Nc3ccc(Br)cc3F)ncnc2cc1OCC1CCN(C)CC1` came in with an RP-LC retention time of 644 s.

In turn, `C=CC(=O)Nc1cccc(Oc2nc(Nc3ccc(N4CCN(C)CC4)cc3)ncc2Cl)c1` came in with an RP-LC retention time of 695 s.

For `CCOC(=O)c1ccc(NC(=O)c2cccc([N+](=O)[O-])c2)cc1`, the RP-LC retention time was 890 s.

Regarding `Cc1ccc(S(=O)(=O)c2cnc3cc4c(cc3c2N2CCOCC2)OCCO4)cc1`, the RP-LC retention time is 849 s.

In turn, `O=C(Nc1ccccc1Br)c1cnc(-c2ccccc2)nc1-c1ccncc1` yielded an RP-LC retention time of 927 s.

As to `O=C(NCC1CCN(C(=O)Oc2ccccc2)CC1)C(=O)Nc1cccnc1`, the RP-LC retention time stood at 610 s.

Compound `Cc1cccnc1NC(=O)C1CCCN(c2ccc3cc(S(=O)(=O)N4CCCC4)ccc3n2)C1` (centres undefined) had an RP-LC retention time of 624 s.

Compound `Cc1cccc(NC(=O)CCCCC(=O)O)n1` returned an RP-LC retention time of 528 s.

On to `O=C(Nc1c(C(=O)N2CCN(c3ccccn3)CC2)oc2ccccc12)c1ccc([N+](=O)[O-])cc1`, for which the RP-LC retention time is 757 s.

In the case of `COc1cccc(-n2nnc(C(=O)O)c2-c2ccncc2)c1`, the RP-LC retention time amounted to 628 s.

`O=C(c1cccc(OCC2CCCN(C(=O)C3CCCO3)C2)c1)N1CCCC1` (centres undefined) had an RP-LC retention time of 718 s.

Regarding `COc1ccc(OC)c(Nc2c(-c3ccc(C)cc3)nc3cnccn23)c1`, the RP-LC retention time is 911 s.

In the case of `COc1ccc(-n2ccn(CC(=O)Nc3ccc(OC)c(Cl)c3)c2=O)cc1`, the RP-LC retention time amounted to 734 s.

As for `Cc1cccc(C(=O)NCC2CCCN(S(=O)(=O)c3cc(C)c(C)cc3C)C2)c1` (centres undefined), the RP-LC retention time was 1060 s.

In turn, `Cc1cccc(NC(=O)CN2C(=O)CCCc3cc(S(=O)(=O)N4CCCC4)ccc32)c1C` yielded an RP-LC retention time of 916 s.

Consider `Cc1cccc(C(=O)N2CCc3ccc(CNC(=O)NCC4CCCO4)cc32)c1` (centres undefined), for which the RP-LC retention time was found to be 894 s.

In turn, `CCN1CCN(C(=O)Nc2ccc(Br)cc2)c2cccnc21` yielded an RP-LC retention time of 666 s.

Regarding `CC(=O)Nc1ccc(-n2cnc(C(=O)NCCC3=CCCCC3)c2)nc1`, the RP-LC retention time came out at 739 s.

As for `COc1ccc(-c2noc(-c3cccnc3N3CCN(c4ccc(OC)cc4)CC3)n2)cc1`, the RP-LC retention time stood at 1070 s.

`CCCN1C(=O)c2c(C(=O)N(C)Cc3ccccc3)ncn2CC1(C)C(=O)NCc1ccc(C)cc1` (centres undefined) yielded an RP-LC retention time of 793 s.

`COc1ccc(NC(=O)N2CCC(n3c(-c4ccoc4)nc4cccnc43)C2)cc1F` (centres undefined) registered an RP-LC retention time of 725 s.

Compound `COCc1cc(=O)n(CC(=O)N2CCN(c3ccc(F)cc3)CC2)c(N2CCOCC2)n1` came in with an RP-LC retention time of 819 s.

In turn, `Cc1ccc(CNC(=O)CN2C(=O)CCc3cc(S(=O)(=O)N4CCCCC4C)ccc32)cc1` (centres undefined) showed an RP-LC retention time of 916 s.

Consider `Cc1ccc2c(c1)N(S(C)(=O)=O)CCC(C(=O)Nc1ccc(F)c(Cl)c1)O2` (centres undefined), for which the RP-LC retention time was 998 s.

In the case of `CCOC(=O)Cn1cc(S(=O)(=O)N2CCCC2)ccc1=O`, the RP-LC retention time is 696 s.

The compound `Cc1ccc(S(=O)(=O)Nc2cc(-c3cn4cccc(C)c4n3)ccc2C)cc1C` registered an RP-LC retention time of 729 s.

`Cc1ccc(-c2nc(-c3ccc(NS(=O)(=O)c4cccs4)cc3)no2)cc1F` yielded an RP-LC retention time of 1180 s.

`CCSc1ccc(Cc2nnc(NC(=O)c3ccc(S(=O)(=O)N(C)C)cc3)o2)cc1` returned an RP-LC retention time of 819 s.

For `O=C(Nc1ccc(F)cc1)N1CCC(N2CC(F)(F)C[C@H]2COCC2CC2)CC1`, the RP-LC retention time amounted to 699 s.

As to `Cn1cccc1C(CNC(=O)Nc1ccc(Cl)c(Cl)c1)N1CCOCC1` (centres undefined), the RP-LC retention time came to 601 s.

In turn, `Cn1cc(-c2ccccc2)cc1C(=O)NCCCN1CCOCC1` came in with an RP-LC retention time of 636 s.

Consider `O=C(C1=CN(c2ccccc2)c2cc(Cl)ccc2S1(=O)=O)N1CCCC1`, for which the RP-LC retention time came out at 827 s.

As to `Cc1cccc(Cn2c(=O)n(CCNC(=O)CC(C)(C)C)c3ncccc32)c1`, the RP-LC retention time is 864 s.

Compound `O=C(NC1CCCN(c2cc(-c3ccccc3)[nH]n2)C1)c1ccc2c(c1)OCO2` (centres undefined) returned an RP-LC retention time of 760 s.

Compound `O=C(NCc1cccc(Cl)c1)C1=C2CCCN2c2ccc(F)cc2S1(=O)=O` showed an RP-LC retention time of 933 s.

`O=C(CC1(O)C(=O)Nc2c(Cl)ccc(Cl)c21)c1ccc(Cl)cc1Cl` (centres undefined) registered an RP-LC retention time of 879 s.

Regarding `Cc1ccc(NC(=O)N2CCCC(Cn3cnc4cccnc43)C2)cc1C` (centres undefined), the RP-LC retention time is 719 s.

In turn, `CCNc1nc(-c2ccccc2F)no1` gave an RP-LC retention time of 761 s.

Consider `COc1ccccc1C(=O)NC1CCN(c2cc(C)cc(C)c2)C1=O` (centres undefined), for which the RP-LC retention time turned out to be 928 s.

For the compound `O=C(COc1ccc(F)cc1)N1CC(n2cnnc2C2CC2)C1`, the RP-LC retention time worked out at 627 s.

In turn, `Nc1cccc(C(=O)CC2(O)C(=O)Nc3ccc(Cl)cc32)c1` (centres undefined) gave an RP-LC retention time of 627 s.

In turn, `CS(=O)(=O)N1C[C@H]2CCN(Cc3c(F)cccc3Cl)C[C@H]21` registered an RP-LC retention time of 571 s.

Compound `Cc1ccc(-n2ncc3c(=O)n(Cc4nc(-c5ccccc5)no4)cnc32)cc1` returned an RP-LC retention time of 1080 s.

`CCc1cccc(C)c1NC(=O)Cn1nc(N2CCC(C)CC2)c2ccccc2c1=O` had an RP-LC retention time of 1160 s.

`CCOc1ccc(CC(=O)Nc2ccc3c(c2)Sc2ncccc2C(=O)N3C)cc1` had an RP-LC retention time of 931 s.

`Cc1cc(C)n(CCNc2nc3c(F)cc(F)cc3s2)n1`: the RP-LC retention time is 732 s.

On to `CC(=O)NCC(=O)N1c2ccccc2CC1c1nc(C(C)C)no1` (centres undefined), for which the RP-LC retention time amounted to 724 s.

As to `Cc1cccc(-c2nnc(-c3nc(NCCCN4CCCC4=O)c4ccccc4n3)o2)c1`, the RP-LC retention time worked out at 814 s.

On to `COc1ccc(N2CCN(C(=O)C3CCCN(c4ccncc4)C3)CC2)cc1` (centres undefined), for which the RP-LC retention time amounted to 593 s.

With `CC(=O)Nc1ccc(NC(=O)Cn2cccc(-c3nc(-c4ccccc4)no3)c2=O)cc1`, the RP-LC retention time came to 694 s.

Compound `CSc1ccc(CNC(=O)C2CCN(Cc3cn(C)c4ccc(Cl)cc34)CC2)cc1` displayed an RP-LC retention time of 766 s.

Compound `CCN(CC)S(=O)(=O)c1ccc2c(c1)N(CC(=O)NCCc1cnc[nH]1)C(=O)C1CCCCN21` (centres undefined) returned an RP-LC retention time of 655 s.

Compound `Cc1nn(CC(=O)N2CCN(c3ccc(Cl)cc3)CC2)c(=O)c2noc(C)c12` displayed an RP-LC retention time of 821 s.

Regarding `Cc1c(CC(=O)NC2CC2)c(=O)n2nc(-c3ccccc3)nc2n1C`, the RP-LC retention time was 651 s.

In the case of `O=C(CC1CCCC1)NCC1(c2ccccc2)CCCOCC1` (centres undefined), the RP-LC retention time came out at 872 s.

The compound `CCOc1ccc(CNC(=O)C2CCCN(c3nn4c(=O)c5c(nc4s3)CCCC5)C2)cc1OC` (centres undefined) gave an RP-LC retention time of 737 s.

Compound `COC(=O)c1ccc(CN2CCC(c3nnc(C(F)(F)F)o3)CC2)o1` returned an RP-LC retention time of 560 s.

Consider `COc1cccc(N2CCN(S(=O)(=O)c3cc(-c4nc(C)cs4)cs3)CC2)c1`, for which the RP-LC retention time was 1070 s.

`CCc1noc(NC(C)=O)c1-c1ccc(OC)c(S(=O)(=O)N2CC=C(c3ccccc3)CC2)c1` came in with an RP-LC retention time of 918 s.

For `CCOC(=O)c1noc2nc(C)nc(NC(C)c3ccccc3)c12` (centres undefined), the RP-LC retention time came to 1140 s.

On to `Cc1nc2cc(N3CCCC(C(=O)NCc4cccc(F)c4)C3)cnc2nc1C` (centres undefined), for which the RP-LC retention time amounted to 735 s.

For `Cc1ccc(=O)n(CCNC(=O)C2CC(=O)N(c3ccc(C)c(C)c3)C2)n1` (centres undefined), the RP-LC retention time amounted to 615 s.

In the case of `CC1CCCCC1Nc1nc(-c2ccc([N+](=O)[O-])cc2)nc2ccccc12` (centres undefined), the RP-LC retention time amounted to 950 s.

Take `CC(C)NC(=O)C1=CCN(C(=O)c2ccc(F)cc2)CC1`: the RP-LC retention time turned out to be 714 s.

Consider `CCn1cc(-c2nc(C(=O)Nc3cc(F)ccc3F)cs2)c2cccnc21`, for which the RP-LC retention time was found to be 1220 s.

Turning to `CCn1cc(C(=O)NCc2cccc(C)c2)c2cccnc21`, the RP-LC retention time was 812 s.

`Cn1c(=O)c2c(nc(Oc3ccccc3)n2C)n(C)c1=O` had an RP-LC retention time of 807 s.

`Cc1ccc(-c2nc3nc(C)cc(N4CCCCC4C)n3n2)cc1` (centres undefined) displayed an RP-LC retention time of 1050 s.
